{"source": "patent US10770169B2", "about": "“Method of providing a treatment to a subject based on a dynamic pathway map” (THE REGENTS OF THE UNIVERSITY OF CALIFORNIA, priority 2010, dated 2020)", "key": {"[1]": {"tested_on": "panel of 55 breast cancer cell lines", "assay": "Cell growth inhibition assay (Cell Titer Glo, 72 h, 9 doses; GI50, TGI, LC50)", "format": "cell-based, human", "conditions": "value is the negative log10 of mol/L"}, "[2]": {"tested_on": "luminal, basal, claudin-low and ERBB2AMP breast cancer cell lines", "assay": "Associations of clinically relevant subtypes and response (non-parametric ANOVA or t-test on GI50 ranks)", "format": "cell-based, human", "conditions": "Table 6; most sensitive subtype, FDR p<0.20", "method_in_brief": "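GI50 values were compared between cell-line subtype groups by non-parametric ANOVA or t-test on ranks. P-values from three test sets were combined and FDR-corrected. Significant three-group effects were followed by post-hoc comparison of each group against all others, and FDR p<0.20 counted as significant.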"}}, "data": [{"compound": "CC(/C=C/C(=O)NO)=C\\[C@@H](C)C(=O)c1ccc(N(C)C)cc1", "note": "[Trichostatin A]", "values": [{"measurement": "GI50", "setting": "[1]; 600MPE cell line, censored GI50 values", "result": 5.18}, {"measurement": "GI50", "setting": "[1]; AU565 cell line, censored GI50 values", "result": 5.43}, {"measurement": "GI50", "setting": "[1]; BT20 cell line, censored GI50 values", "result": 4.81}, {"measurement": "GI50", "setting": "[1]; BT474 cell line, censored GI50 values", "result": 5.00}, {"measurement": "GI50", "setting": "[1]; BT483 cell line, censored GI50 values", "result": 5.00}, {"measurement": "GI50", "setting": "[1]; BT549 cell line, censored GI50 values", "result": 5.13}, {"measurement": "GI50", "setting": "[1]; CAMA1 cell line, censored GI50 values", "result": 5.57}, {"measurement": "GI50", "setting": "[1]; HCC38 cell line, censored GI50 values", "result": 5.22}, {"measurement": "GI50", "setting": "[1]; HCC70 cell line, censored GI50 values", "result": 4.84}, {"measurement": "GI50", "setting": "[1]; HCC202 cell line, censored GI50 values", "result": 6.04}, {"measurement": "GI50", "setting": "[1]; HCC1143 cell line, censored GI50 values", "result": 4.77}, {"measurement": "GI50", "setting": "[1]; HCC1187 cell line, censored GI50 values", "result": 5.32}, {"measurement": "GI50", "setting": "[1]; HCC1395 cell line, censored GI50 values", "result": 4.50}, {"measurement": "GI50", "setting": "[1]; HCC1419 cell line, censored GI50 values", "result": 4.85}, {"measurement": "GI50", "setting": "[1]; HCC1428 cell line, censored GI50 values", "result": 5.73}, {"measurement": "GI50", "setting": "[1]; HCC1500 cell line, censored GI50 values", "result": 4.82}, {"measurement": "GI50", "setting": "[1]; HCC1806 cell line, censored GI50 values", "result": 4.97}, {"measurement": "GI50", "setting": "[1]; HCC1937 cell line, censored GI50 values", "result": 4.82}, {"measurement": "GI50", "setting": "[1]; HCC1954 cell line, censored GI50 values", "result": 4.95}, {"measurement": "GI50", "setting": "[1]; HCC2185 cell line, censored GI50 values", "result": 4.79}, {"measurement": "GI50", "setting": "[1]; HCC3153 cell line, censored GI50 values", "result": 4.62}, {"measurement": "GI50", "setting": "[1]; LY2 cell line, censored GI50 values", "result": 4.86}, {"measurement": "GI50", "setting": "[1]; MCF7 cell line, censored GI50 values", "result": 5.16}, {"measurement": "GI50", "setting": "[1]; MDAMB134VI cell line, censored GI50 values", "result": 5.17}, {"measurement": "GI50", "setting": "[1]; MDAMB157 cell line, censored GI50 values", "result": 4.68}, {"measurement": "GI50", "setting": "[1]; MDAMB175VII cell line, censored GI50 values", "result": 5.23}, {"measurement": "GI50", "setting": "[1]; MDAMB231 cell line, censored GI50 values", "result": 5.26}, {"measurement": "GI50", "setting": "[1]; MDAMB361 cell line, censored GI50 values", "result": 5.09}, {"measurement": "GI50", "setting": "[1]; MDAMB415 cell line, censored GI50 values", "result": 4.90}, {"measurement": "GI50", "setting": "[1]; MDAMB436 cell line, censored GI50 values", "result": 4.67}, {"measurement": "GI50", "setting": "[1]; MDAMB453 cell line, censored GI50 values", "result": 5.23}, {"measurement": "GI50", "setting": "[1]; MDAMB468 cell line, censored GI50 values", "result": 4.85}, {"measurement": "GI50", "setting": "[1]; SKBR3 cell line, censored GI50 values", "result": 5.21}, {"measurement": "GI50", "setting": "[1]; SUM52PE cell line, censored GI50 values", "result": 5.57}, {"measurement": "GI50", "setting": "[1]; SUM149PT cell line, censored GI50 values", "result": 5.14}, {"measurement": "GI50", "setting": "[1]; SUM159PT cell line, censored GI50 values", "result": 5.23}, {"measurement": "GI50", "setting": "[1]; SUM185PE cell line, censored GI50 values", "result": 4.76}, {"measurement": "GI50", "setting": "[1]; SUM225CWN cell line, censored GI50 values", "result": 4.85}, {"measurement": "GI50", "setting": "[1]; SUM1315MO2 cell line, censored GI50 values", "result": 4.31}, {"measurement": "GI50", "setting": "[1]; T47D cell line, censored GI50 values", "result": 5.44}, {"measurement": "GI50", "setting": "[1]; UACC812 cell line, censored GI50 values", "result": 5.04}, {"measurement": "GI50", "setting": "[1]; UACC893 cell line, censored GI50 values", "result": 5.54}, {"measurement": "GI50", "setting": "[1]; ZR75B cell line, censored GI50 values", "result": 5.30}, {"measurement": "GI50", "setting": "[1]; ZR751 cell line, censored GI50 values", "result": 4.74}, {"measurement": "GI50", "setting": "[1]; cell line 600MPE", "result": 5.18}, {"measurement": "GI50", "setting": "[1]; cell line AU565", "result": 5.43}, {"measurement": "GI50", "setting": "[1]; cell line BT20", "result": 4.81}, {"measurement": "GI50", "setting": "[1]; cell line BT474", "result": 5.00}, {"measurement": "GI50", "setting": "[1]; cell line BT483", "result": 5.00}, {"measurement": "GI50", "setting": "[1]; cell line BT549", "result": 5.13}, {"measurement": "GI50", "setting": "[1]; cell line CAMA1", "result": 5.57}, {"measurement": "GI50", "setting": "[1]; cell line HCC38", "result": 5.22}, {"measurement": "GI50", "setting": "[1]; cell line HCC70", "result": 4.84}, {"measurement": "GI50", "setting": "[1]; cell line HCC202", "result": 6.04}, {"measurement": "GI50", "setting": "[1]; cell line HCC1143", "result": 4.77}, {"measurement": "GI50", "setting": "[1]; cell line HCC1187", "result": 5.32}, {"measurement": "GI50", "setting": "[1]; cell line HCC1395", "result": 4.50}, {"measurement": "GI50", "setting": "[1]; cell line HCC1419", "result": 4.85}, {"measurement": "GI50", "setting": "[1]; cell line HCC1428", "result": 5.73}, {"measurement": "GI50", "setting": "[1]; cell line HCC1500", "result": 4.82}, {"measurement": "GI50", "setting": "[1]; cell line HCC1806", "result": 4.97}, {"measurement": "GI50", "setting": "[1]; cell line HCC1937", "result": 4.82}, {"measurement": "GI50", "setting": "[1]; cell line HCC1954", "result": 4.95}, {"measurement": "GI50", "setting": "[1]; cell line HCC2185", "result": 4.79}, {"measurement": "GI50", "setting": "[1]; cell line HCC3153", "result": 4.62}, {"measurement": "GI50", "setting": "[1]; cell line LY2", "result": 4.86}, {"measurement": "GI50", "setting": "[1]; cell line MCF7", "result": 5.16}, {"measurement": "GI50", "setting": "[1]; cell line MDAMB134V", "result": 5.17}, {"measurement": "GI50", "setting": "[1]; cell line MDAMB157", "result": 4.68}, {"measurement": "GI50", "setting": "[1]; cell line MDAMB175V", "result": 5.23}, {"measurement": "GI50", "setting": "[1]; cell line MDAMB231", "result": 5.26}, {"measurement": "GI50", "setting": "[1]; cell line MDAMB361", "result": 5.09}, {"measurement": "GI50", "setting": "[1]; cell line MDAMB415", "result": 4.90}, {"measurement": "GI50", "setting": "[1]; cell line MDAMB436", "result": 4.67}, {"measurement": "GI50", "setting": "[1]; cell line MDAMB453", "result": 5.23}, {"measurement": "GI50", "setting": "[1]; cell line MDAMB468", "result": 4.85}, {"measurement": "GI50", "setting": "[1]; cell line SKBR3", "result": 5.21}, {"measurement": "GI50", "setting": "[1]; cell line SUM52PE", "result": 5.57}, {"measurement": "GI50", "setting": "[1]; cell line SUM149PT", "result": 5.14}, {"measurement": "GI50", "setting": "[1]; cell line SUM159PT", "result": 5.23}, {"measurement": "GI50", "setting": "[1]; cell line SUM185PE", "result": 4.76}, {"measurement": "GI50", "setting": "[1]; cell line SUM225CWN", "result": 4.85}, {"measurement": "GI50", "setting": "[1]; cell line SUM1315MO", "result": 4.31}, {"measurement": "GI50", "setting": "[1]; cell line T47D", "result": 5.44}, {"measurement": "GI50", "setting": "[1]; cell line UACC812", "result": 5.04}, {"measurement": "GI50", "setting": "[1]; cell line UACC893", "result": 5.54}, {"measurement": "GI50", "setting": "[1]; cell line ZR75B", "result": 5.30}, {"measurement": "GI50", "setting": "[1]; cell line ZR751", "result": 4.74}, {"measurement": "Subtype specificity", "setting": "[2]", "result": "Luminal"}]}]}
